Reference: US20220048915A1 (SHANGHAI PHARMACEUTICALS HOLDING CO., LTD., priority 2018, published 2022)
Where two headings read alike, the source gives them in different places.

Columns and labels:
Assay in all cases: In vitro inhibition of p38 kinase (LANCE Ultra TR-FRET)
Type in all cases: biochemical
p38α = p38α (Homo sapiens, UniProt Q16539)
p38β = p38β (Homo sapiens, UniProt Q15759)
p38γ = target: T1, p38γ (Homo sapiens, UniProt P53778)
T1 sequence (P53778 1-367): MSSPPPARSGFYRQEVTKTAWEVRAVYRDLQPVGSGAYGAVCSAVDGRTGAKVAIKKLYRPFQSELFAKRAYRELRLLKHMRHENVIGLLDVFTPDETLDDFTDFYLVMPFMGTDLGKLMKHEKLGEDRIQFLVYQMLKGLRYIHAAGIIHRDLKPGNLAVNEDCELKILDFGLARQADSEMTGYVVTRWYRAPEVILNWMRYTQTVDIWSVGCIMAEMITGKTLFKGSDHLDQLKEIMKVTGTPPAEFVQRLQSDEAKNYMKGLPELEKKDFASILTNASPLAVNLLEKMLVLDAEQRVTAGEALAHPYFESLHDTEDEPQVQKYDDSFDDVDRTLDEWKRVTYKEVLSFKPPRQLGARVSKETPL
Description: 10 mM of the storage solution of the test compound was taken and placed in a 96-well compound plate, and using DMSO for the compound at an initial concentration of 100×, which was then used as the first concentration and then carried out a 3-fold gradient dilution with DMSO for a total of 10 concentrations. After that, 1 μL of gradient dilutions were added to 19 μL of 1× reaction buffer to prepare 5× compound for later use. […] To the compound-free control well was added 2 μL of the following liquid: 19 μL of 1× reaction buffer with addition of 1 μL of DMSO. To the Min control well was added 2 μL of 250 mM EDTA.
1× of LANCE® Detection value Buffer was used to prepare a 2×Antibody for use, and the amount was 5 μL per well, at the same time 10 mM EDTA was prepared for later use. After the enzyme reaction was carried out for 30 minutes, 5 μL 10 mM EDTA was added to the 384-well plate and the reaction was carried out at room temperature for 5 minutes. Afterwards, 5 μL LANCE® Ultra Europium-anti-phospho-eIF4E-binding protein 1 (Thr37/46) was added to the 384-well plate and the reaction was carried out at room temperature for one hour.

[1] = read-out: Kinase in vitro IC50(nM) p38α
[2] = read-out: Kinase in vitro IC50(nM) p38β
[3] = read-out: Kinase in vitro IC50(nM) p38γ

p38β, sequence (Q15759 whole entry): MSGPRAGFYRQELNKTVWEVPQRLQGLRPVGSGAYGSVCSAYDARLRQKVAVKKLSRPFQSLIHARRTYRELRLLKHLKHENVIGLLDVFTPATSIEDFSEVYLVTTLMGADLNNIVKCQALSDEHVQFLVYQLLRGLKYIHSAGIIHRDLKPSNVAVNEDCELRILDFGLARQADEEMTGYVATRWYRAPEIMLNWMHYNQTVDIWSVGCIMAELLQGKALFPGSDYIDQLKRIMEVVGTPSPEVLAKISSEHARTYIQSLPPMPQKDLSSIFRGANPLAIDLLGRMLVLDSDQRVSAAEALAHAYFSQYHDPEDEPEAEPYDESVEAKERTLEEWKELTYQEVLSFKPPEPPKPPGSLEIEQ
p38α, sequence (Q16539 whole entry): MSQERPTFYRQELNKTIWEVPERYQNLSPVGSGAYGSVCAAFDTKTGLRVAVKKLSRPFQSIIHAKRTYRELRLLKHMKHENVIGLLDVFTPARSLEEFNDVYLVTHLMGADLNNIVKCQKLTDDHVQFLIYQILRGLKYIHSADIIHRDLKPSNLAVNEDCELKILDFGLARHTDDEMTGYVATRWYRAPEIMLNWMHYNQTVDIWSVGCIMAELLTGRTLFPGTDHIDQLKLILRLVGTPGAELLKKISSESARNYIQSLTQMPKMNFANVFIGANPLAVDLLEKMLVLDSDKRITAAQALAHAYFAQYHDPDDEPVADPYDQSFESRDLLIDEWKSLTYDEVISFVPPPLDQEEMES

For `CCOc1ccc2c(-c3c(Cl)cccc3Cl)c(=O)ncn2n1` [Compound I-7, 5-(2,6-dichlorophenyl)-2-ethoxy-6H-pyrimido[1,6-b]pyridazin-6-one], the IC50 (p38α; [1]) was 1680 nM, the IC50 (p38β; [2]) was > 3330 nM and the IC50 (p38γ; [3]) was > 3330 nM.
For `Cc1ccc(Oc2ccc3c(-c4c(Cl)cccc4Cl)c(=O)ncn3n2)cc1F` [Compound I-11, 5-(2,6-dichlorophenyl)-2-(3-fluoro-4-methylphenoxy)-6H-pyrimido[1,6-b]pyridazin-6-one], the IC50 (p38α; [1]) was 137 nM, the IC50 (p38β; [2]) was 1220 nM and the IC50 (p38γ; [3]) was > 3330 nM.
In the case of `O=c1ncn2nc(OC3CCOC3)ccc2c1-c1c(Cl)cccc1Cl` (stereo not drawn) [Compound I-3, 5-(2,6-dichlorophenyl)-2-((tetrahydrofuran-3-yl)oxy)-6H-pyrimido[1,6-b]pyridazin-6-one], the IC50 (p38α; [1]) is reported as > 3330 nM, the IC50 (p38β; [2]) is reported as > 3330 nM and the IC50 (p38γ; [3]) is reported as > 3330 nM.
For `O=c1ncn2nc(NC3CC(F)(F)C3)ccc2c1-c1c(Cl)cccc1Cl` [Compound I-14, 5-(2,6-dichlorophenyl)-2-((3,3-difluorocyclobutyl)amino)-6H-pyrimido[1,6-b]pyridazin-6-one], the IC50 (p38α; [1]) was 1350 nM, the IC50 (p38β; [2]) was > 3330 nM and the IC50 (p38γ; [3]) was > 3330 nM.
For `O=c1ncn2nc(OC3CC=CC3)ccc2c1-c1c(Cl)cccc1Cl` [Compound I-38, 2-(cyclopent-3-en-1-yloxy)-5-(2,6-dichlorophenyl)-6H-pyrimido[1,6-b]pyridazin-6-one], the IC50 (p38α; [1]) was 414 nM, the IC50 (p38β; [2]) was 2160 nM and the IC50 (p38γ; [3]) was > 3330 nM.
In the case of `Cc1cc(F)ccc1Oc1ccc2c(-c3c(Cl)cccc3Cl)c(=O)ncn2n1` [Compound I-28, 5-(2,6-dichlorophenyl)-2-(4-fluoro-2-methylphenoxy)-6H-pyrimido[1,6-b]pyridazin-6-one], the IC50 (p38α; [1]) is reported as 38.8 nM, the IC50 (p38β; [2]) is reported as > 3330 nM and the IC50 (p38γ; [3]) is reported as > 3330 nM.
With `O=c1ncn2nc(Oc3ccc(F)cc3F)ccc2c1-c1c(F)cc(F)cc1F` [Compound I-57, 5-(2,4,6-trifluorophenyl)-2-(2,4-difluorophenoxy)-6H-pyrimido[1,6-b]pyridazin-6-one] the IC50 (p38α; [1]) was 22.7 nM, the IC50 (p38β; [2]) was 614 nM and the IC50 (p38γ; [3]) was > 3330 nM.
In the case of `N#Cc1ccc(Oc2ccc3c(-c4c(Cl)cccc4Cl)c(=O)ncn3n2)cc1` [Compound I-26, 4-((5-(2,6-dichlorophenyl)-6-oxo-6H-pyrimido[1,6-b]pyridazin-2-yl)oxy)benzonitrile], the IC50 (p38α; [1]) is reported as > 3330 nM, the IC50 (p38β; [2]) is reported as > 3330 nM and the IC50 (p38γ; [3]) is reported as > 3330 nM.
For `O=c1ncn2nc(OCC(F)(F)F)ccc2c1-c1c(Cl)cccc1Cl` [Compound I-13, 5-(2,6-dichlorophenyl)-2-(2,2,2-trifluoroethoxy)-6H-pyrimido[1,6-b]pyridazin-6-one], the IC50 (p38α; [1]) was > 3330 nM, the IC50 (p38β; [2]) was > 3330 nM and the IC50 (p38γ; [3]) was > 3330 nM.
For `O=c1ncn2nc(OC3CC(F)(F)C3)ccc2c1-c1c(Cl)cccc1Cl` [Compound I-1, 5-(2,6-dichlorophenyl)-2-(3,3-difluorocyclobutoxy)-6H-pyrimido[1,6-b]pyridazin-6-one], the IC50 (p38α) was > 3330 nM, the IC50 (p38β) was > 3330 nM and the IC50 (p38γ) was > 3330 nM.
With `COC(=O)c1ccc(OC)c(-c2c(=O)ncn3nc(Oc4ccc(F)cc4F)ccc23)c1` [Compound I-55, methyl 3-[2-(2,4-difluorophenoxy)-6-oxo-pyrimido[1,6-b]pyridazin-5-yl]-4-methoxybenzoate] the IC50 (p38α; [1]) was 17.7 nM, the IC50 (p38β; [2]) was 117 nM and the IC50 (p38γ; [3]) was > 3330 nM.
For `CC(Oc1ccc2c(-c3c(Cl)cccc3Cl)c(=O)ncn2n1)c1ccc(F)cc1F` (stereo not drawn) [Compound I-41, 5-(2,6-dichlorophenyl)-2-(1-(2,4-difluorophenyl)ethoxy)-6H-pyrimido[1,6-b]pyridazin-6-one], the IC50 (p38α; [1]) was > 3330 nM, the IC50 (p38β; [2]) was > 3330 nM and the IC50 (p38γ; [3]) was > 3330 nM.
`O=c1ncn2nc(OC3CCCC=C3Cl)ccc2c1-c1c(Cl)cccc1Cl` (stereo not drawn) [Compound I-42, 2-((2-chlorocyclohex-2-en-1-yl)oxy)-5-(2,6-dichlorophenyl)-6H-pyrimido[1,6-b]pyridazin-6-one] was tested, and the IC50 (p38α; [1]) was 228 nM, the IC50 (p38β; [2]) was 686 nM and the IC50 (p38γ; [3]) was > 3330 nM.
With `Cc1cccc(C)c1-c1c(=O)ncn2nc(Oc3ccc(F)cc3F)ccc12` [Compound I-45, 2-(2,4-difluorophenoxy)-5-(2,6-dimethylphenyl)-6H-pyrimido[1,6-b]pyridazin-6-one] the IC50 (p38α; [1]) was 35.4 nM, the IC50 (p38β; [2]) was 643 nM and the IC50 (p38γ; [3]) was > 3330 nM.
`O=c1ncn2nc(OCC(F)F)ccc2c1-c1c(Cl)cccc1Cl` [Compound I-8, 5-(2,6-dichlorophenyl)-2-(2,2-difluoroethoxy)-6H-pyrimido[1,6-b]pyridazin-6-one] was tested, and the IC50 (p38α; [1]) was > 3330 nM, the IC50 (p38β; [2]) was > 3330 nM and the IC50 (p38γ; [3]) was > 3330 nM.
In the case of `CNC(=O)c1ccc(Cl)c(-c2c(=O)ncn3nc(Oc4ccc(F)cc4F)ccc23)c1` [Compound I-51, 4-chloro-3-(2-(2,4-difluorophenoxy)-6-oxo-6H-pyrimido[1,6-b]pyridazin-5-yl)-N-methylbenzamide], the IC50 (p38α; [1]) is reported as 17.5 nM, the IC50 (p38β; [2]) is reported as 256 nM and the IC50 (p38γ; [3]) is reported as > 3330 nM.
With `O=c1ncn2nc(Oc3ccc(Cl)cc3)ccc2c1-c1c(Cl)cccc1Cl` [Compound I-33] the IC50 (p38α; [1]) was 24 nM, the IC50 (p38β; [2]) was 470 nM and the IC50 (p38γ; [3]) was > 3330 nM.
For `O=c1ncn2nc(Oc3ccc(F)cc3F)ccc2c1-c1ccc(Cl)c(Cl)c1` [Compound I-58, 5-(3,4-dichlorophenyl)-2-(2,4-difluorophenoxy)-6H-pyrimido[1,6-b]pyridazin-6-one], the IC50 (p38α; [1]) was 137 nM, the IC50 (p38β; [2]) was > 3330 nM and the IC50 (p38γ; [3]) was > 3330 nM.
With `O=c1ncn2nc(Oc3ccc(F)cc3F)ccc2c1-c1cccc(Cl)c1Cl` [Compound I-52, 5-(2,3-dichlorophenyl)-2-(2,4-difluorophenoxy)-6H-pyrimido[1,6-b]pyridazin-6-one] the IC50 (p38α; [1]) was 54.2 nM, the IC50 (p38β; [2]) was 947 nM and the IC50 (p38γ; [3]) was > 3330 nM.
For `O=c1ncn2nc(OC3CCOCC3)ccc2c1-c1c(Cl)cccc1Cl` [Compound I-2, 5-(2,6-dichlorophenyl)-2-((tetrahydro-2H-pyran-4-yl)oxy)-6H-pyrimido[1,6-b]pyridazin-6-one], the IC50 (p38α; [1]) was 2690 nM, the IC50 (p38β; [2]) was > 3330 nM and the IC50 (p38γ; [3]) was > 3330 nM.
`O=c1ncn2nc(Oc3ccc(F)cc3F)ccc2c1-c1c(F)cccc1F` [Compound I-49, 2-(2,4-difluorophenoxy)-5-(2,6-difluorophenyl)-6H-pyrimido[1,6-b]pyridazin-6-one] was tested, and the IC50 (p38α; [1]) was 14.1 nM, the IC50 (p38β; [2]) was 213 nM and the IC50 (p38γ; [3]) was > 3330 nM.
`COc1ccc(Oc2ccc3c(-c4c(Cl)cccc4Cl)c(=O)ncn3n2)c(Cl)c1` [Compound I-9, 2-(2-chloro-4-methoxyphenoxy)-5-(2,6-dichlorophenyl)-6H-pyrimido[1,6-b]pyridazin-6-one] was tested, and the IC50 (p38α; [1]) was 112 nM, the IC50 (p38β; [2]) was 301 nM and the IC50 (p38γ; [3]) was > 3330 nM.
`O=c1ncn2nc(Oc3cccc(F)c3)ccc2c1-c1c(Cl)cccc1Cl` [Compound I-25, 5-(2,6-dichlorophenyl)-2-(3-fluorophenoxy)-6H-pyrimido[1,6-b]pyridazin-6-one] was tested, and the IC50 (p38α; [1]) was 151 nM, the IC50 (p38β; [2]) was 1430 nM and the IC50 (p38γ; [3]) was > 3330 nM.
In the case of `O=c1ncn2nc(Oc3ccc(F)cc3F)c(-c3ccncc3)cc2c1-c1c(Cl)cccc1Cl` [Compound I-59, 5-(2,6-dichlorophenyl)-2-(2,4-difluorophenoxy)-3-(pyridin-4-yl)-6H-pyrimido[1,6-b]pyridazin-6-one], the IC50 (p38α; [1]) is reported as 81.3 nM, the IC50 (p38β; [2]) is reported as 1220 nM and the IC50 (p38γ; [3]) is reported as > 3330 nM.
In the case of `Cc1cc(Cl)ccc1Oc1ccc2c(-c3c(Cl)cccc3Cl)c(=O)ncn2n1` [Compound I-34, 2-(4-chloro-2-methylphenoxy)-5-(2,6-dichlorophenyl)-6H-pyrimido[1,6-b]pyridazin-6-one], the IC50 (p38α; [1]) is reported as 49.8 nM, the IC50 (p38β; [2]) is reported as 389 nM and the IC50 (p38γ; [3]) is reported as > 3330 nM.
In the case of `O=c1ncn2nc(Oc3cncc(F)c3)ccc2c1-c1c(Cl)cccc1Cl` [Compound I-24, 5-(2,6-dichlorophenyl)-2-((5-fluoropyridin-3-yl)oxy)-6H-pyrimido[1,6-b]pyridazin-6-one], the IC50 (p38α; [1]) is reported as 1980 nM, the IC50 (p38β; [2]) is reported as > 3330 nM and the IC50 (p38γ; [3]) is reported as > 3330 nM.
With `O=c1ncn2nc(Oc3ccc(F)cc3F)c(N3CCOCC3)cc2c1-c1c(Cl)cccc1Cl` [Compound I-61, 5-(2,6-dichlorophenyl)-2-(2,4-difluorophenoxy)-3-morpholinyl-6H-pyrimido[1,6-b]pyridazin-6-one] the IC50 (p38α; [1]) was 11.7 nM, the IC50 (p38β; [2]) was 32.7 nM and the IC50 (p38γ; [3]) was > 3330 nM.
`O=c1ncn2nc(Oc3ccc(F)cc3F)ccc2c1C1=CCCCC1` [Compound I-44, 5-(cyclohex-1-en-1-yl)-2-(2,4-difluorophenoxy)-6H-pyrimido[1,6-b]pyridazin-6-one] was tested, and the IC50 (p38α; [1]) was 31 nM, the IC50 (p38β; [2]) was 635 nM and the IC50 (p38γ; [3]) was > 3330 nM.
For `O=c1ncn2nc(OC3C=CCCC3)ccc2c1-c1c(Cl)cccc1Cl` (stereo not drawn) [Compound I-37, 2-(cyclohex-2-en-1-yloxy)-5-(2,6-dichlorophenyl)-6H-pyrimido[1,6-b]pyridazin-6-one], the IC50 (p38α; [1]) was 503 nM, the IC50 (p38β; [2]) was 2830 nM and the IC50 (p38γ; [3]) was > 3330 nM.
